Assay results as given in patent publication US20110053916A1 (Vertex Pharmaceuticals Incorporated, priority 2009, published 2011).

Legend:
[1] = target: T1, PknB (Mycobacterium tuberculosis, UniProt P9WI81); test: biochemical; design: species or system M. tuberculosis; conditions: 3 nM PknB, 6 uM GarA, 3 μM ATP, 30 min; competitive tight-binding fit; several symbols in a cell = repeat determinations; read-out: Ki Values
T1 construct: made in house

[2] = system: Mycobacterium tuberculosis H37Ra; test: Mycobacterium tuberculosis growth inhibition assay (microtiter dilution, resazurin reduction); assay type: cell-based; conditions: 7H9 broth, 9 days + 24 h resazurin, lowest concentration inhibiting resazurin reduction by >70%, several symbols in a cell = repeat determinations
How it was run: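 M. tuberculosis H37Ra at ~1×10^6 cells/mL in 7H9 broth plus 10% ADC, exposed to 2-fold serial dilutions (7 or 11 steps) at 37 °C for 9 days. Resazurin then added, fluorescence (492/595 nm) read at baseline and after 24 h; MIC = lowest concentration inhibiting resazurin reduction >70% versus DMSO.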

T1 sequence (P9WI81 whole entry): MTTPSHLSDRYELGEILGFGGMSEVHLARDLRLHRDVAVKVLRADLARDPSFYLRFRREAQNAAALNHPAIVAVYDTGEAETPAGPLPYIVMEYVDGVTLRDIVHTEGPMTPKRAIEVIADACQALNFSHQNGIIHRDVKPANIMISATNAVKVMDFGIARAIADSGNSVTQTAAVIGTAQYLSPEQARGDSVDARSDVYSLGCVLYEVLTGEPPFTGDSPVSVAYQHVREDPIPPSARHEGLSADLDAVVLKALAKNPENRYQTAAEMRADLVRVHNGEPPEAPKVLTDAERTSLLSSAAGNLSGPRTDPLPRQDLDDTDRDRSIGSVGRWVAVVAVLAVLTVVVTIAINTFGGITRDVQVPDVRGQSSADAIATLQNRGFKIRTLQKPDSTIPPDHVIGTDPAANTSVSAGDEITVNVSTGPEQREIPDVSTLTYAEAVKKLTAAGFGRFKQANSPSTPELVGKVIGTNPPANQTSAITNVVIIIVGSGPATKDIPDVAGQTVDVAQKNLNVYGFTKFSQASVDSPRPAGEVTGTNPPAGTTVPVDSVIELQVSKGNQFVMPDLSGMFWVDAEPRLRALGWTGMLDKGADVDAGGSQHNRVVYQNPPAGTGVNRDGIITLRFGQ

| Structure (SMILES) | Ki [1] | MIC values [2] |
| --- | --- | --- |
| C#Cc1cnc(C2=CCN(C(=O)OC(C)(C)C)CC2)nc1Nc1cc(C2CC2)[nH]n1 [Compound 250, Tert-butyl 4-(4-(5-cyclopropyl-1H-pyrazol-3-ylamino)-5-ethynylpyrimidin-2-yl)-5,6-dihydropyridine-1(2H)-carboxylate] | 100 to 500 nM | B+ |
| NS(=O)(=O)c1ccc(-c2ncc(NC=O)c(Nc3cc(C4CC4)[nH]n3)n2)s1 [Compound 252, N-[4-[(5-cyclopropyl-1H-pyrazol-3-yl)amino]-2-(5-sulfamoyl-2-thienyl)-pyrimidin-5-yl]formamide] | 10 to 50 nM | B+ |
| N#CCC(=O)Nc1cnc(-c2ccc(S(N)(=O)=O)s2)nc1Nc1cc(C2CC2)[nH]n1 [Compound 254, 2-cyano-N-[4-[(5-cyclopropyl-1H-pyrazol-3-yl)amino]-2-(5-sulfamoyl-2-thienyl)-pyrimidin-5-yl]acetamide] | 100 to 500 nM | B, C |
| C=CCCC(=O)c1ncc(Cl)c(Nc2cc(C3CC3)[nH]n2)n1 [Compound 256, 1-[5-chloro-4-[(5-cyclopropyl-1H-pyrazol-3-yl)amino]-pyrimidin-2-yl]pent-4-en-1-one] | 500 to 1000 nM | B+ |
| CC(C)(C)NS(=O)(=O)c1ccc(-c2ncc(Cl)c(Nc3cc(C4CCN(C(=O)OCc5ccccc5)C4)n[nH]3)n2)s1 (stereo not drawn) [Compound 257, benzyl 3-[5-[[5-chloro-2-[5-(tert-butylsulfamoyl)-2-thienyl]-pyrimidin-4-yl]amino]-1H-pyrazol-3-yl]pyrrolidine-1-carboxylate] | > 4000 nM | B++ |
| CC(C)(C)OC(=O)NCc1ccc(-c2ncc(Cl)c(Nc3cc(C4CC4)n[nH]3)n2)s1 [Compound 261, tert-butyl [[5-[5-chloro-4-[(5-cyclopropyl-2H-pyrazol-3-yl)amino]-pyrimidin-2-yl]-2-thienyl]methylamino]formate] | 100 to 500 nM | B++ |
| Cc1cc(Nc2cc(C3CC3)[nH]n2)nc(-c2ccc(S(N)(=O)=O)s2)n1 [Compound 265, 5-[4-[(5-cyclopropyl-1H-pyrazol-3-yl)amino]-6-methyl-pyrimidin-2-yl]thiophene-2-sulfonamide] | 1 to 10 nM | B++ |
| Cc1nc(-c2ccc(S(N)(=O)=O)s2)nc(Nc2cc(C3CC3)[nH]n2)c1Cl [Compound 266, 5-[5-chloro-4-[(5-cyclopropyl-1H-pyrazol-3-yl)amino]-6-methyl-pyrimidin-2-yl]thiophene-2-sulfonamide] | 1 to 10 nM | A+, A, A, C |
| C#Cc1c(C)nc(-c2ccc(S(N)(=O)=O)s2)nc1Nc1cc(C2CC2)[nH]n1 [Compound 267, 5-(4-(3-cyclopropyl-1H-pyrazol-5-ylamino)-5-ethynyl-6-methylpyrimidin-2-yl)thiophene-2-sulfonamide] | 1 to 10 nM | A+, A |
| C#Cc1c(C)nc(-c2ccc(S(=O)(=O)NC(C)(C)C)s2)nc1Nc1cc(C2CC2)[nH]n1 [Compound 268, 5-[4-[(5-cyclopropyl-1H-pyrazol-3-yl)amino]-5-ethynyl-6-methyl-pyrimidin-2-yl]-N-tert-butyl-thiophene-2-sulfonamide] | 10 to 50 nM | B++ |
| CC(C)(C)NS(=O)(=O)c1ccc(-c2ccc(N)c(Nc3cc(C4CC4)n[nH]3)n2)s1 [Compound 273, 5-[5-amino-6-[(5-cyclopropyl-2H-pyrazol-3-yl)amino]-2-pyridyl]-N-tert-butyl-thiophene-2-sulfonamide] | 10 to 50 nM | B+ |
| NS(=O)(=O)c1ccc(-c2ccc([N+](=O)[O-])c(Nc3cc(C4CC4)n[nH]3)n2)s1 [Compound 275, 5-[6-[(5-cyclopropyl-2H-pyrazol-3-yl)amino]-5-nitro-2-pyridyl]thiophene-2-sulfonamide] | 1 to 10 nM | B++ |
| CNc1cc(Nc2cc(C3CC3)n[nH]2)nc(-c2ccc(S(N)(=O)=O)s2)n1 [Compound 279, 5-[4-[(5-cyclopropyl-2H-pyrazol-3-yl)amino]-6-methylamino-pyrimidin-2-yl]thiophene-2-sulfonamide] | 1000 to 2000 nM | B++ |
| NS(=O)(=O)c1ccc(-c2nc(Nc3cc(C4CC4)n[nH]3)cc(N3CCCC3)n2)s1 [Compound 284, 5-[4-[(5-cyclopropyl-2H-pyrazol-3-yl)amino]-6-pyrrolidin-1-yl-pyrimidin-2-yl]thiophene-2-sulfonamide] | 100 to 500 nM | B++ |
| COC(=O)NCc1ccc(-c2ncc(Cl)c(Nc3cc(C4CC4)n[nH]3)n2)s1 [Compound 287, methyl [[5-[5-chloro-4-[(5-cyclopropyl-2H-pyrazol-3-yl)amino]-pyrimidin-2-yl]-2-thienyl]methylamino]formate] | 10 to 50 nM | B+ |
| NS(=O)(=O)c1ccc(-c2nc(Nc3cc(C4CC4)n[nH]3)cc(N3CCOCC3)n2)s1 [Compound 290, 5-[4-[(5-cyclopropyl-2H-pyrazol-3-yl)amino]-6-morpholino-pyrimidin-2-yl]thiophene-2-sulfonamide] | 500 to 1000 nM | B++ |
| COc1cc(Nc2cc(C3CC3)n[nH]2)nc(-c2ccc(S(N)(=O)=O)s2)n1 [Compound 293, 5-[4-[(5-cyclopropyl-2H-pyrazol-3-yl)amino]-6-methoxy-pyrimidin-2-yl]thiophene-2-sulfonamide] | 100 to 500 nM | B++ |
| Nc1cc(Nc2cc(C3CC3)n[nH]2)nc(-c2ccc(S(N)(=O)=O)s2)n1 [Compound 294, 5-[4-amino-6-[(5-cyclopropyl-2H-pyrazol-3-yl)amino]-pyrimidin-2-yl]thiophene-2-sulfonamide] | 2000 to 4000 nM | B+ |
| CC(C)(C)NS(=O)(=O)c1ccc(-c2nccc(Nc3cc(C4CC4)[nH]n3)n2)cn1 [Compound 300, 5-[4-[(5-cyclopropyl-1H-pyrazol-3-yl)amino]pyrimidin-2-yl]-N-tert-butyl-pyridine-2-sulfonamide] | 50 to 100 nM | B+ |
| NS(=O)(=O)c1ccc(-c2nccc(Nc3cc(C4CC4)[nH]n3)n2)cn1 [Compound 301, 5-[4-[(5-cyclopropyl-1H-pyrazol-3-yl)amino]pyrimidin-2-yl]pyridine-2-sulfonamide] | 50 to 100 nM | B+ |
| NC(=O)c1ncc(Cl)c(Nc2cc(C3CC3)[nH]n2)n1 [Compound 303, 5-chloro-4-[(5-cyclopropyl-1H-pyrazol-3-yl)amino]-pyrimidine-2-carboxamide] | 2000 to 4000 nM | B+ |
| NC(=S)c1ncc(Cl)c(Nc2cc(C3CC3)[nH]n2)n1 [Compound 305, 5-chloro-4-[(5-cyclopropyl-1H-pyrazol-3-yl)amino]-pyrimidine-2-carbothioamide] | 500 to 1000 nM | A, B++ |
| O=S(=O)(O)c1ccc(-c2ncc(Cl)c(Nc3cc(C4CC4)[nH]n3)n2)s1 [Compound 306, 5-[5-chloro-4-[(5-cyclopropyl-1H-pyrazol-3-yl)amino]-pyrimidin-2-yl]thiophene-2-sulfonic acid] | 10 to 50 nM | B+ |
| O=S(=O)(c1ccc(-c2ncc(Cl)c(Nc3cc(C4CC4)[nH]n3)n2)s1)n1cccc1 [Compound 307, 5-chloro-N-(5-cyclopropyl-1H-pyrazol-3-yl)-2-(5-pyrrol-1-ylsulfonyl-2-thienyl)-pyrimidin-4-amine] | 10 to 50 nM | B+ |
